From PubChem BioAssay (NCI)
Values joined by “and” are separate entries in the source; they are usually repeats but may differ in a detail not shown here. Identical values can stand only once.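 Growth conditions: 96-well plates. Treatment: test compound, 48 hours, 5 concentrations. Analysis: linear interpolation between bracketing concentrations; unreached endpoints set to highest concentration. GI50 marks 50% less growth. TGI is the concentration that stops growth completely.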

How the values were obtained:
Assay in all cases: NCI anticancer screen, dose series, 48 h
CCRF-CEM leukemia = system: CCRF-CEM leukemia
DLD-1 colon = system: DLD-1 colon
HL-60(TB) leukemia = system: HL-60(TB) leukemia
NCI-H460 lung = system: NCI-H460 lung
OVCAR-8 ovarian = system: OVCAR-8 ovarian
SNB-78 CNS = system: SNB-78 CNS
SR leukemia = system: SR leukemia
UACC-62 melanoma = system: UACC-62 melanoma
UO-31 renal = system: UO-31 renal
MDA-MB-231 breast = system: MDA-MB-231 breast

Compound | TGI (CCRF-CEM leukemia) | TGI (DLD-1 colon) | TGI (HL-60(TB) leukemia) | TGI (NCI-H460 lung) | TGI (OVCAR-8 ovarian) | TGI (SNB-78 CNS) | TGI (SR leukemia) | TGI (UACC-62 melanoma) | TGI (UO-31 renal) | TGI (MDA-MB-231 breast) | GI50 (CCRF-CEM leukemia) | GI50 (DLD-1 colon) | GI50 (HL-60(TB) leukemia) | GI50 (UACC-62 melanoma) | GI50 (UO-31 renal) | GI50 (MDA-MB-231 breast) | GI50 (NCI-H460 lung) | GI50 (OVCAR-8 ovarian) | GI50 (SR leukemia)
Cc1cc(C)c2[s+]snc2c1 | > 100 µM | > 100 µM | 44.7 µM | > 100 µM | > 100 µM | > 100 µM | 77 µM | > 100 µM | > 100 µM | – | – | – | – | – | – | – | – | – | –
N#CC12Cc3ccc4c(c3-c3cccc(c31)CCN2C(=O)c1ccccc1)OCO4 (configuration not stated) | > 100 µM | > 100 µM | > 100 µM | – | > 100 µM | > 100 µM | > 100 µM | > 100 µM | > 100 µM | – | – | – | – | – | – | – | – | – | –
Cc1cc2c(cc1C)[n+]([O-])c(-c1c(Cl)cccc1Cl)c(N)[n+]2[O-] | – | > 100 µM | > 100 µM | > 100 µM | > 100 µM | > 100 µM | – | > 100 µM | 88.8 µM | – | – | – | – | – | – | – | – | – | –
O=C1c2ccccc2C(=O)c2sc(Nc3ccc(Cl)c(Cl)c3)nc21 | 5.15 µM | 4.66 µM | 1.18 µM | 34.2 µM | 8.02 µM | 6.68 µM | 11.5 µM | 7.94 µM | 4.97 µM | 6.82 µM | – | – | – | – | – | – | – | – | –
CS(=O)(=O)c1nc(Cl)c(Cl)c(C#N)c1Cl | > 100 µM | 3.13 µM | > 100 µM | 32.4 µM | 9.77 µM | > 36 µM | > 36.4 µM | 10.8 µM | 4.31 µM | 3.24 µM | – | – | – | – | – | – | – | – | –
CC12OC3CC(O1)C1(C=O)C4CCC5(C)C(c6ccc(=O)oc6)CCC5(O)C4CCC1(C3)O2 (configuration not stated) | 1.2 µM | 0.483 µM | 0.474 µM | 0.159 µM | 1.2 µM | 3.66 µM | 0.245 µM | 0.781 µM | 0.97 µM | – | – | – | – | – | – | – | – | – | –
COC(=O)C(=O)C1CCCCC(C2=NC3NN=C(N)N3C2=O)C1=O (configuration not stated) | > 100 µM | > 100 µM | > 100 µM | > 100 µM | > 100 µM | – | > 100 µM | > 100 µM | > 100 µM | – | – | – | – | – | – | – | – | – | –
NNC(=S)N/N=C/C(Cl)=C(\Cl)C(=O)O | > 100 µM | > 100 µM | > 100 µM | > 100 µM | > 100 µM | > 100 µM | > 100 µM | > 100 µM | > 100 µM | – | – | – | – | – | – | – | – | – | –
CC(C)[O-].CC(C)[O-].[O-]c1cccc2cccnc12.[O-]c1cccc2cccnc12.[Ti+4] | > 100 µM | – | – | – | > 100 µM | – | – | > 100 µM | > 100 µM | – | 1.77 µM and 3.32 µM | 4.97 µM | 2.24 µM | 28.5 µM | > 100 µM | – | – | – | –
C[N+]1=c2c3cccc4cccc(c(=O)n2CCC1)c43 | 28.9 µM | 46.9 µM | 25.3 µM | 37.7 µM | 39.9 µM | 94.6 µM | 46.9 µM | 34.1 µM | 39.5 µM | – | – | – | – | – | – | – | – | – | –
CCOc1ccc(NC(=O)CCC(=O)NN)cc1 | > 100 µM | > 100 µM | > 100 µM | > 100 µM | > 100 µM | > 100 µM | – | – | > 100 µM | – | – | – | – | – | – | – | – | – | –
CCc1oc2ccc(OC)c3c2c1C=CC=C3 | > 100 µM | > 100 µM | > 100 µM | > 100 µM | > 100 µM | > 100 µM | > 100 µM | > 100 µM | > 100 µM | – | – | – | – | – | – | – | – | – | –
C=C1CO[C@@H]2C[C@@H]1CC/C(C)=C/CC/C(C)=C/CC[C@@]2(C)O | 33.9 µM | – | 11.2 µM | > 68.3 µM | 44.8 µM | – | 12.8 µM | 35.1 µM | 36.5 µM | 33.3 µM | 14.7 µM | – | 1.17 µM | 18.4 µM | 17.1 µM | 15.5 µM | 24.1 µM | 20.9 µM | 1.71 µM
CNCCOc1nc2c3cnccc3cc(-c3cc(OC)c(OC)c(OC)c3)c2c2ccncc12 | 1.1 µM | – | 0.0685 µM | 0.103 µM | 0.466 µM | – | – | 0.169 µM | 0.156 µM | 1.18 µM | < 0.013 µM | – | < 0.0153 µM | 0.027 µM | 0.0302 µM | 0.0765 µM | < 0.01 µM | 0.0418 µM | < 0.01 µM
CCS/C(Nc1ccccc1)=C(\C#N)C(=O)N/N=C/c1ccc(Cl)cc1Cl | > 100 µM | – | > 100 µM | > 100 µM | > 100 µM | – | > 100 µM | > 100 µM | > 100 µM | > 100 µM | 3.07 µM | – | 3.2 µM | 2.74 µM | 6.91 µM | 4.75 µM | 3.16 µM | 4.81 µM | 3.45 µM
CC[C@H](C)[C@H](NC(=O)C12CC(NC(C)=O)(C1)C2)C(=O)N(C)[C@H](C[C@@H](OC(C)=O)c1nc(C(=O)N[C@@H](Cc2ccccc2)C[C@H](C)C(=O)OC)cs1)C(C)C | > 16.7 µM | – | 0.21 µM | > 16.7 µM | > 16.7 µM | – | > 16.7 µM | > 16.7 µM | > 16.7 µM | > 16.7 µM | 0.273 µM | – | 0.0522 µM | 0.0735 µM | > 8.2 µM | 0.439 µM | 0.32 µM | 0.519 µM | 0.0336 µM
